Experiment: Evaluation of the Tmax of Hydrochlorothiazide following oral administration of hydrochlorothiazide
Format: ADME, organism-based
Details: human, in vivo, dosed compound id 30, dosed compound name HYDROCHLOROTHIAZIDE, tissue Plasma

- Tmax: 2 h
SMILES: NS(=O)(=O)c1cc2c(cc1Cl)NCNS2(=O)=O [HYDROCHLOROTHIAZIDE]

Reference: ChEMBL document CHEMBL3832040, “DailyMed|setid=dbe8d4f6-c338-4076-9ae9-2e86c0767226 | TRIAMTERENE AND HYDROCHLOROTHIAZIDE- triamterene and hydrochlorothiazide tablet|Aidarex Pharmaceuticals LLC”
